In US9629817B2 (priority 2005, dated 2017):
Read-outs that look alike come from different tables or passages of the source.

System: Pigs
Details: riluzole ip 8 mg/kg; for average number of episodes of sustained arrhythmias: VT or VF lasting more than 15 seconds
Procedure: Pigs of either sex and weighing between 20 and 35 kg were each anaesthetised with thiopentone sodium (10-15 mg/kg iv) and maintained under general anaesthesia with isoflurane (0.5-2% in oxygen). Artificial ventilation was maintained at a volume of 15 ml/kg and a rate of 12 breaths per minute. […] Subsequent to a mid-stemotomy and division of the pericardium, the left anterior coronary artery (LAD) was occluded mid-way along its length by permanent ligation.

[1] = first three hours post commencement of hypoxia
[2] = phase 2 (60-180 minutes post LAD occlusion)

Compound: Nc1nc2ccc(OC(F)(F)F)cc2s1 [riluzole, 2-amino-6-tritluoromethoxybenzothiazole]
- animals which developed any non-sustained arrhythmias [1]: 50%
- animals which developed any sustained arrhythmias [1]: 50%
- number of spontaneous PVCs (single), riluzole vs control group (phase 1a (first 15 minutes of hypoxia following LAD occlusion)): no significant difference
- average number of episodes of sustained arrhythmias (phase 1a): 0.17 episodes per animal
- fall in number of episodes of non-sustained arrhythmias vs control group (phase 1a): 43%
- fall in number of episodes of sustained arrhythmias vs control group (phase 1a): 58%
- number of geminy beats (bigeminy, trigeminy and quadrigeminy) occurring spontaneously, riluzole vs control group (phase 1a): no significant
- number of multiple PVCs occurring spontaneously, riluzole vs control group (phase 1a): no significant difference
- number of spontaneous PVCs (single), riluzole vs control group (phase 1b (15-60 minutes post LAD occlusion)): no significant difference
- average number of episodes of sustained arrhythmias (phase 1b): 0.33 episodes per animal
- fall in number of episodes of non-sustained arrhythmias vs control group (phase 1b): 35%
- fall in number of episodes of sustained arrhythmias vs control group (phase 1b): 86%
- number of geminy beats (bigeminy, trigeminy and quadrigeminy) occurring spontaneously, riluzole vs control group (phase 1b): no significant
- number of multiple PVCs occurring spontaneously, riluzole vs control group (phase 1b): no significant difference
- average number of PVCs (single) [2]: 17
- drop in average number of PVCs (single) vs control group [2]: 91%
- average number of episodes of sustained arrhythmias (phase 2): 0.33 episodes per animal
- average number of geminy beats (phase 2): 0
- average number of multiple PVCs (phase 2): 7
- drop in average number of geminy beats vs control group (phase 2): 100%
- drop in average number of multiple PVCs vs control group (phase 2): 93%
- fall in number of episodes of non-sustained arrhythmias vs control group (phase 2): 92%
- fall in number of episodes of sustained arrhythmias vs control group (phase 2): 90%
